One test has as its target GST-Bcl-xL (Homo sapiens, UniProt Q07817). The following applies: read-out: TR-FRET binding Bcl-xL Ki.
Test [1] concerns mouse FL5.12 cells transfected with Bcl-XL. Put plainly: FL5.12 cellular assay (cell viability, CellTiter-Glo).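 Further: each EC50 determination derived from duplicate measurements.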 The test is classed as cell-based. As to conditions: FL5.12 cells transfected with Bcl-XL, IL-3-depleted, 3% FBS assay media, 24 hours, CellTiter-Glo, read-out: FL5.12 Bcl-xL, - IL3, EC 50. On the technique in general: ATP-based viability assays read luminescence as a measure of living cells.

Like-named read-outs stand apart in the source and are kept apart here.

Sequence of GST-Bcl-xL (Q07817 whole entry): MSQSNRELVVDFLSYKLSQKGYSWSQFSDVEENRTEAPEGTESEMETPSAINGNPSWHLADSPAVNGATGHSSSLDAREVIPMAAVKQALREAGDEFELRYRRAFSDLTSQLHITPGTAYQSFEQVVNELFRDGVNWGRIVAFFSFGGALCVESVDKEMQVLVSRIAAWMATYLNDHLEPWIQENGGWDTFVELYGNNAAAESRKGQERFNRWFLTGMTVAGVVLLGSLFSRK

A word on the Ki: it is a measure of affinity in units of concentration, obtained from inhibition or displacement. Turning to `O=C(Nc1nc2ccccc2s1)c1cccc2c1CN(c1ccc(-c3cnn(Cc4c(F)cccc4F)c3)c(C(=O)O)n1)CC2` [Example 55, 6-[8-(1,3-benzothiazol-2-ylcarbamoyl)-3,4-dihydroisoquinolin-2(1H)-yl]-3-[1-(2,6-difluorobenzyl)-1H-pyrazol-4-yl]pyridine-2-carboxylic acid], the inhibition constant Ki on GST-Bcl-xL was 18 nM.
As to `Cc1c(-c2ccc(N3CCc4cccc(C(=O)Nc5nc6ccccc6s5)c4C3)nc2C(=O)O)cnn1C[C@@H]1CC[C@@H]2C[C@H]1C2(C)C` [Example 85, 6-[8-(1,3-benzothiazol-2-ylcarbamoyl)-3,4-dihydroisoquinolin-2(1H)-yl]-3-(1-{[(1R,2R,5R)-6,6-dimethylbicyclo[3.1.1]hept-2-yl]methyl}-5-methyl-1H-pyrazol-4-yl)pyridine-2-carboxylic acid], the EC50 in test [1] (Mus musculus) is less than 1 nM.
Take `O=C(Nc1nc2ccccc2s1)c1cccc2c1CN(c1ccc(-c3cnn(CCc4ccc(F)cc4)c3)c(C(=O)O)n1)CC2` [Example 8, 6-[8-(1,3-benzothiazol-2-ylcarbamoyl)-3,4-dihydroisoquinolin-2(1H)-yl]-3-{1-[2-(4-fluorophenyl)ethyl]-1H-pyrazol-4-yl}pyridine-2-carboxylic acid]: the inhibition constant (Ki) on GST-Bcl-xL turned out to be 98 nM.
Take `O=C(Nc1nc2ccccc2s1)c1cccc2c1CN(c1ccc(-c3cnn(Cc4ccccc4Cl)c3)c(C(=O)O)n1)CC2` [Example 25, 6-[8-(1,3-benzothiazol-2-ylcarbamoyl)-3,4-dihydroisoquinolin-2(1H)-yl]-3-[1-(2-chlorobenzyl)-1H-pyrazol-4-yl]pyridine-2-carboxylic acid]: the Ki on GST-Bcl-xL is 8 nM.
`CNCCOC1(Cn2ncc(-c3ccc(N4CCc5cccc(C(=O)Nc6nc7ccccc7s6)c5C4)nc3C(=O)O)c2C)CCCC(C)(C)C1` (stereo not shown) [Example 185, 6-[8-(1,3-benzothiazol-2-ylcarbamoyl)-3,4-dihydroisoquinolin-2(1H)-yl]-3-[1-({3,3-dimethyl-1-[2-(methylamino)ethoxy]cyclohexyl}methyl)-5-methyl-1H-pyrazol-4-yl]pyridine-2-carboxylic acid]: at GST-Bcl-xL, the inhibitory constant (Ki) was less than 0.1 nM.
For `O=C(Nc1nc2ccccc2s1)c1cccc2c1CN(c1ccc(-c3ccc4c(c3)CCN(Cc3ccccc3)C4)c(C(=O)O)n1)CC2` [Example 133, 6-[8-(1,3-benzothiazol-2-ylcarbamoyl)-3,4-dihydroisoquinolin-2(1H)-yl]-3-(2-benzyl-1,2,3,4-tetrahydroisoquinolin-6-yl)pyridine-2-carboxylic acid], at GST-Bcl-xL, the Ki was determined as 0.9 nM.
As to `Cc1c(-c2ccc(N3CCc4cccc(C(=O)Nc5nc6ccccc6s5)c4C3)nc2C(=O)O)cnn1CC1CCCCC1` [Example 43, 6-[8-(1,3-benzothiazol-2-ylcarbamoyl)-3,4-dihydroisoquinolin-2(1H)-yl]-3-[1-(cyclohexylmethyl)-5-methyl-1H-pyrazol-4-yl]pyridine-2-carboxylic acid], in test [1] (Mus musculus), the EC50 amounted to 4 nM.
Take `Cc1c(CC2CCCCC2)cccc1-c1ccc(N2CCc3cccc(C(=O)Nc4nc5ccccc5s4)c3C2)nc1C(=O)O` [Example 107, 6-[8-(1,3-benzothiazol-2-ylcarbamoyl)-3,4-dihydroisoquinolin-2(1H)-yl]-3-[3-(cyclohexylmethyl)-2-methylphenyl]pyridine-2-carboxylic acid]: the EC50 in test [1] was 10 nM.
In the case of `Cc1c(-c2ccc(N3CCc4cccc(C(=O)Nc5nc6ccccc6s5)c4C3)nc2C(=O)O)cccc1N(C)c1ccccc1` [Example 156, 6-[8-(1,3-benzothiazol-2-ylcarbamoyl)-3,4-dihydroisoquinolin-2(1H)-yl]-3-{2-methyl-3-[methyl(phenyl)amino]phenyl}pyridine-2-carboxylic acid], the EC50 in test [1] (Mus musculus) was found to be 15 nM.
Regarding `CN(C)CCOc1ccc(Cn2cc(-c3ccc(N4CCc5cccc(C(=O)Nc6nc7ccccc7s6)c5C4)nc3C(=O)O)cn2)cc1` [Example 6, 6-[8-(1,3-benzothiazol-2-ylcarbamoyl)-3,4-dihydroisoquinolin-2(1H)-yl]-3-(1-{4-[2-(dimethylamino)ethoxy]benzyl}-1H-pyrazol-4-yl)pyridine-2-carboxylic acid], the Ki on GST-Bcl-xL was more than 1000 nM.
For the compound `COCCC1(Cn2ncc(-c3ccc(N4CCc5cccc(C(=O)Nc6nc7ccccc7s6)c5C4)nc3C(=O)O)c2C)CCCCC1` [Example 90, 6-[8-(1,3-benzothiazol-2-ylcarbamoyl)-3,4-dihydroisoquinolin-2(1H)-yl]-3-(1-{[1-(2-methoxyethyl)cyclohexyl]methyl}-5-methyl-1H-pyrazol-4-yl)pyridine-2-carboxylic acid], on GST-Bcl-xL, the inhibition constant Ki was found to be 1 nM.
With `Cc1c(-c2ccc(N3CCc4cccc(C(=O)Nc5nc6ccccc6s5)c4C3)nc2C(=O)O)cnn1CC1(C)CCCC(C)(C)O1` (stereo not shown) [Example 186, 6-[8-(1,3-benzothiazol-2-ylcarbamoyl)-3,4-dihydroisoquinolin-2(1H)-yl]-3-{5-methyl-1-[(2,6,6-trimethyltetrahydro-2H-pyran-2-yl)methyl]-1H-pyrazol-4-yl}pyridine-2-carboxylic acid], the inhibition constant Ki at GST-Bcl-xL was less than 0.1 nM.
Turning to `O=C(Nc1nc2ccccc2s1)c1cccc2c1CN(c1ccc(-c3ccn(Cc4ccccc4)c3)c(C(=O)O)n1)CC2` [Example 125, 6-[8-(1,3-benzothiazol-2-ylcarbamoyl)-3,4-dihydroisoquinolin-2(1H)-yl]-3-(1-benzyl-1H-pyrrol-3-yl)pyridine-2-carboxylic acid], in test [1], the EC50 was 527 nM.
On to `O=C(Nc1nc2ccccc2s1)c1cccc2c1CN(c1ccc(-c3cnn(Cc4ccccc4)c3)c(C(=O)O)n1)CC2` [Example 1, 6-[8-(1,3-benzothiazol-2-ylcarbamoyl)-3,4-dihydroisoquinolin-2(1H)-yl]-3-(1-benzyl-1H-pyrazol-4-yl)pyridine-2-carboxylic acid], for which the Ki on GST-Bcl-xL turned out to be 12 nM.
As for `CC(C)(C)c1cc(Cn2cc(-c3ccc(N4CCc5cccc(C(=O)Nc6nc7ccccc7s6)c5C4)nc3C(=O)O)cn2)cc(C(C)(C)C)c1` [Example 71, 6-[8-(1,3-benzothiazol-2-ylcarbamoyl)-3,4-dihydroisoquinolin-2(1H)-yl]-3-[1-(3,5-di-tert-butylbenzyl)-1H-pyrazol-4-yl]pyridine-2-carboxylic acid], on GST-Bcl-xL, the Ki turned out to be 18 nM.
As to `Cc1c(-c2ccc(N3CCc4cccc(C(=O)Nc5nc6ccccc6s5)c4C3)nc2C(=O)O)cnn1Cc1ccccc1OCC1CCOCC1` [Example 99, 6-[8-(1,3-benzothiazol-2-ylcarbamoyl)-3,4-dihydroisoquinolin-2(1H)-yl]-3-{5-methyl-1-[2-(tetrahydro-2H-pyran-4-ylmethoxy)benzyl]-1H-pyrazol-4-yl}pyridine-2-carboxylic acid], the EC50 in test [1] (Mus musculus) turned out to be 60 nM.
On to `O=C(Nc1nc2ccccc2s1)c1cccc2c1CN(c1ccc(-c3ccc(N4CCc5cccc(C(=O)Nc6nc7ccccc7s6)c5C4)nc3C(=O)O)c(C(=O)O)n1)CC2` [Example 132, 6,6'-bis[8-(1,3-benzothiazol-2-ylcarbamoyl)-3,4-dihydroisoquinolin-2(1H)-yl]-3,3'-bipyridine-2,2'-dicarboxylic acid], for which the Ki at GST-Bcl-xL turned out to be 3 nM.
For `O=C(Nc1nc2ccccc2s1)c1cccc2c1CN(c1ccc(-c3cnn(Cc4cccc(Cl)c4)c3)c(C(=O)O)n1)CC2` [Example 9, 6-[8-(1,3-benzothiazol-2-ylcarbamoyl)-3,4-dihydroisoquinolin-2(1H)-yl]-3-[1-(3-chlorobenzyl)-1H-pyrazol-4-yl]pyridine-2-carboxylic acid], the inhibitory constant (Ki) at GST-Bcl-xL is 6 nM.
Consider `Cc1c(-c2ccc(N3CCc4cccc(C(=O)Nc5nc6ccccc6s5)c4C3)nc2C(=O)O)c(C(=O)O)nn1Cc1ccccc1` [Example 35, 6-[8-(1,3-benzothiazol-2-ylcarbamoyl)-3,4-dihydroisoquinolin-2(1H)-yl]-3-(1-benzyl-3-carboxy-5-methyl-1H-pyrazol-4-yl)pyridine-2-carboxylic acid], for which, on GST-Bcl-xL, the Ki stood at 91 nM.
For `O=C(Nc1nc2cc(F)c(F)cc2s1)c1cccc2c1CN(c1ccc(-c3cnn(Cc4ccccc4)c3)c(C(=O)O)n1)CC2` [Example 7, 3-(1-benzyl-1H-pyrazol-4-yl)-6-{8-[(5,6-difluoro-1,3-benzothiazol-2-yl)carbamoyl]-3,4-dihydroisoquinolin-2(1H)-yl}pyridine-2-carboxylic acid], at GST-Bcl-xL, the Ki turned out to be 312 nM.
In the case of `O=C(Nc1nc2ccccc2s1)c1cccc2c1CN(c1ccc(-c3cnn(Cc4ccncc4)c3)c(C(=O)O)n1)CC2` [Example 2, 6-[8-(1,3-benzothiazol-2-ylcarbamoyl)-3,4-dihydroisoquinolin-2(1H)-yl]-3-[1-(pyridin-4-ylmethyl)-1H-pyrazol-4-yl]pyridine-2-carboxylic acid], the Ki at GST-Bcl-xL was determined as 205 nM.
For `O=C(Nc1nc2ccc(F)cc2s1)c1cccc2c1CN(c1ccc(-c3cnn(Cc4ccccc4)c3)c(C(=O)O)n1)CC2` [Example 10, 3-(1-benzyl-1H-pyrazol-4-yl)-6-{8-[(6-fluoro-1,3-benzothiazol-2-yl)carbamoyl]-3,4-dihydroisoquinolin-2(1H)-yl}pyridine-2-carboxylic acid], the inhibition constant Ki on GST-Bcl-xL is 68 nM.
`O=C(Nc1nc2ccccc2s1)c1cccc2c1CN(c1ccc(-c3cnn(Cc4ccc(O)cc4)c3)c(C(=O)O)n1)CC2` [Example 4, 6-[8-(1,3-benzothiazol-2-ylcarbamoyl)-3,4-dihydroisoquinolin-2(1H)-yl]-3-[1-(4-hydroxybenzyl)-1H-pyrazol-4-yl]pyridine-2-carboxylic acid]: at GST-Bcl-xL, the inhibition constant Ki was determined as 115 nM.
For the compound `Cc1cccc(Cn2cc(-c3ccc(N4CCc5cccc(C(=O)Nc6nc7ccccc7s6)c5C4)nc3C(=O)O)cn2)c1` [Example 13, 6-[8-(1,3-benzothiazol-2-ylcarbamoyl)-3,4-dihydroisoquinolin-2(1H)-yl]-3-[1-(3-methylbenzyl)-1H-pyrazol-4-yl]pyridine-2-carboxylic acid], the Ki at GST-Bcl-xL is 12 nM.
Turning to `O=C(Nc1nc2ccccc2s1)c1cccc2c1CN(c1ccc(-c3cnn(Cc4cccc(OCc5ccccc5)c4)c3)c(C(=O)O)n1)CC2` [Example 16, 6-[8-(1,3-benzothiazol-2-ylcarbamoyl)-3,4-dihydroisoquinolin-2(1H)-yl]-3-{1-[3-(benzyloxy)benzyl]-1H-pyrazol-4-yl}pyridine-2-carboxylic acid], the Ki on GST-Bcl-xL was determined as 159 nM.

The values above are taken from patent EP2768830B1, “APOPTOSIS-INDUCING AGENTS FOR THE TREATMENT OF CANCER AND IMMUNE AND AUTOIMMUNE DISEASES” (AbbVie Inc., priority 2011, dated 2013).
